Assay results: patent US4870168A, “3-Unsaturated alkyl cephems from 3-triflyl cephems” (Bristol-Myers Company, priority 1987, dated 1989)
Converted amounts (≈) assume the structure as drawn. Where two headings read alike, the source gives them in different places.

What was measured:
Format in all cases: cell-based
E. coli = assay: Antibacterial activity (MIC); conditions: Escherichia coli
S. pyogenes = assay: Antibacterial activity (MIC); conditions: Streptococcus pyogenes
S. aureus /50% serum = assay: Antibacterial activity (MIC), 50% serum; conditions: Staphylococcus aureus
P. mirabilis = assay: Antibacterial activity (MIC); conditions: Proteus mirabilis
S. aureus /Pen. Res. = assay: Antibacterial activity (MIC); conditions: Staphylococcus aureus
S. faecalis = assay: Antibacterial activity (MIC); conditions: Enterococcus faecalis
S. aureus = assay: Antibacterial activity (MIC); conditions: Staphylococcus aureus
E. cloacae = assay: Antibacterial activity (MIC); conditions: Enterobacter cloacae
K. pneumoniae = assay: Antibacterial activity (MIC); conditions: Klebsiella pneumoniae
S. pneumoniae = assay: Antibacterial activity (MIC); conditions: Streptococcus pneumoniae
S. aureus /Meth. Res. = assay: Antibacterial activity (MIC); conditions: Staphylococcus aureus
[1] = S. aureus /Pen. Res., read-out: MIC
[2] = S. aureus /Meth. Res., read-out: MIC

Compound	MIC (E. coli; first of two lines) [µg/mL]	MIC (E. coli; second of two lines) [µg/mL]	MIC (S. pyogenes) [µg/mL]	MIC (S. aureus /50% serum) [µg/mL]	MIC (P. mirabilis) [µg/mL]	MIC (S. aureus /Pen. Res.; [1]) [µg/mL]	MIC (S. faecalis) [µg/mL]	MIC (S. aureus) [µg/mL]	MIC (E. cloacae) [µg/mL]	MIC (K. pneumoniae; first of two lines) [µg/mL]	MIC (K. pneumoniae; second of two lines) [µg/mL]	MIC (S. pneumoniae) [µg/mL]	MIC (S. aureus /Meth. Res.; [2]) [µg/mL]	MIC (S. aureus /Pen. Res.) [µg/mL]	MIC (S. aureus /Meth. Res.) [µg/mL]
CC=C=CC1=C(C(=O)O)N2C(=O)C(NC(=O)[C@H](N)c3ccc(O)cc3)C2SC1 (some centres unmarked) [Ex. 14]	> 63	> 63	2 (≈ 4.98 µM)	32 (≈ 79.7 µM)	63 (≈ 157 µM)	63 (≈ 157 µM)	> 63	8 (≈ 19.9 µM)	> 63	> 63	> 63	2 (≈ 4.98 µM)	> 63		
N[C@@H](C(=O)N[C@@H]1C(=O)N2C(C(=O)O)=C(Cl)CS[C@H]12)c1ccccc1 [CEFACLOR, reference compound]	1 (≈ 2.72 µM)	2 (≈ 5.44 µM)	0.13 (≈ 0.353 µM)	1 (≈ 2.72 µM)	2 (≈ 5.44 µM)		32 (≈ 87 µM)	0.25 (≈ 0.68 µM)	> 125	0.5 (≈ 1.36 µM)	63 (≈ 171 µM)	0.13 (≈ 0.353 µM)		1 (≈ 2.72 µM)	> 125
C/C=C\C1=C(C(=O)OC(c2ccccc2)c2ccccc2)N2C(=O)C(NC(=O)Cc3ccccc3)[C@H]2SC1 (some centres unmarked) [Ex. 1, Diphenylmethyl 7-phenylacetamido-3-(Z-1-propenyl)-3-cephem-4-carboxylate]	1 (≈ 1.91 µM)	4 (≈ 7.62 µM)	0.016 (≈ 0.0305 µM)	0.5 (≈ 0.953 µM)	1 (≈ 1.91 µM)	1 (≈ 1.91 µM)	8 (≈ 15.2 µM)	0.13 (≈ 0.248 µM)	> 125	0.5 (≈ 0.953 µM)	63 (≈ 120 µM)	0.03 (≈ 0.0572 µM)	> 125		
CC1=C(C(=O)O)N2C(=O)[C@@H](NC(=O)[C@H](N)c3ccccc3)[C@H]2SC1 [CEPHALEXIN, reference compound]	4 (≈ 11.5 µM)	4 (≈ 11.5 µM)	0.25 (≈ 0.72 µM)	1 (≈ 2.88 µM)	4 (≈ 11.5 µM)		63 (≈ 181 µM)	0.5 (≈ 1.44 µM)	> 125	4 (≈ 11.5 µM)	63 (≈ 181 µM)	0.5 (≈ 1.44 µM)		8 (≈ 23 µM)	> 125
CC(C)=CC1=C(C(=O)OC(c2ccccc2)c2ccccc2)N2C(=O)C(NC(=O)Cc3ccccc3)[C@H]2SC1 (some centres unmarked) [Ex. 3, Diphenylmethyl 7-phenylacetamido-3-(2-methyl-1-propenyl)-3-cephem-4-carboxylate]	2 (≈ 3.71 µM)	32 (≈ 59.4 µM)	0.03 (≈ 0.0557 µM)	0.06 (≈ 0.111 µM)	4 (≈ 7.43 µM)	0.5 (≈ 0.928 µM)	4 (≈ 7.43 µM)		63 (≈ 117 µM)	4 (≈ 7.43 µM)	> 125	0.03 (≈ 0.0557 µM)	> 125		
CC#CC1=C(C(=O)OC(c2ccccc2)c2ccccc2)N2C(=O)C(NC(=O)Cc3ccccc3)[C@H]2SC1 (some centres unmarked) [Ex. 2, Diphenylmethyl 7-phenylacetamido-3-(1-propynyl)-3-cephem-4-carboxylate]	16 (≈ 30.6 µM)	16 (≈ 30.6 µM)	4 (≈ 7.65 µM)	> 16	16 (≈ 30.6 µM)	8 (≈ 15.3 µM)	16 (≈ 30.6 µM)	4 (≈ 7.65 µM)	> 16	16 (≈ 30.6 µM)	> 16	8 (≈ 15.3 µM)	> 16		
